The source of these data is US11414422B2, “Substituted pyrido[4,3-b]indoles and azepino[4,5-b]indoles as inhibitors of cGAS” (The Rockefeller University, priority 2018, dated 2022).

pIC50: −log10 of the molar value.

For this experiment, the target named is T1, h-cGAS (Homo sapiens, UniProt Q8N884).
T1 construct: The final concentration of full-length h-cGAS, dsDNA, ATP, and GTP were 100 nM
T1 sequence (Q8N884 whole entry): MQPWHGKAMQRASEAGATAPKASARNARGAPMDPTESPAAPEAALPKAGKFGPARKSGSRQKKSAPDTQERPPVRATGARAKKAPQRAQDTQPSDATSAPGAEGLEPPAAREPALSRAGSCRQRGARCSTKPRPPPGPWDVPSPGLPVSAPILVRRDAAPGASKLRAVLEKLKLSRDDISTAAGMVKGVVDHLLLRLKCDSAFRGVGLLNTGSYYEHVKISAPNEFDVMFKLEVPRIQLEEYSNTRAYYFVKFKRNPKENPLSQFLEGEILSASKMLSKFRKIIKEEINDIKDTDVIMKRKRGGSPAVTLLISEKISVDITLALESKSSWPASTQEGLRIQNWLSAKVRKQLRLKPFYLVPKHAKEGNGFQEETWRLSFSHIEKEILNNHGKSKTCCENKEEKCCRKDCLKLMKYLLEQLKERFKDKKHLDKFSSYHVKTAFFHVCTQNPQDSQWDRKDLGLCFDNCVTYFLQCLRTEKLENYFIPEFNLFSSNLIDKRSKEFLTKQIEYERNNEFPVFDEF
Nature of the experiment: cGAS biochemical assay, RapidFire 365 mass spectrometry (RF-MS). The following applies: full-length h-cGAS 100 nM, dsDNA 25 nM, ATP and GTP 100 μM, 7 h at RT.
In turn, `COc1cncc(-c2cc(Cl)c(Cl)c3[nH]c4c(c23)CN(C(=O)CO)CC4)c1` [TDI-008107] had a pIC50 of 7.28.
In the case of `NC(=O)c1cccc(-c2cc(Cl)c(Cl)c3[nH]c4c(c23)CN(C(=O)CO)CC4)c1` [TDI-008118], the pIC50 was 7.11.
`COCC(=O)N1CCc2c(c3cc(Cl)cc(Cl)c3n2CC(F)(F)F)C1` [TDI-005021] had a pIC50 of 4.86.
As for `Cc1cc(-c2cc(Cl)c(Cl)c3[nH]c4c(c23)CN(C(=O)CO)CC4)n(C)n1` [TDI-008095], the negative logarithm of the IC50 (pIC50) is 6.03.
As for `O=C(CO)N1CCc2[nH]c3c(F)c(Cl)c(Br)cc3c2C1` [TDI-007362], the figure is 6.23; as for `N#Cc1ccccc1-c1cc(Cl)c(Cl)c2[nH]c3c(c12)CN(C(=O)CO)CC3` [TDI-008097], 7.37.
For the compound `Cn1nccc1-c1cc(Cl)c(Cl)c2[nH]c3c(c12)CN(C(=O)CO)CC3` [TDI-008444], the pIC50 was 5.49.
`O=C(CO)N1CCc2[nH]c3c(Cl)c(Cl)cc(Cc4ccc(-n5cccn5)cc4)c3c2C1` [TDI-008443] showed a pIC50 of 6.23.
Compound `C[C@@H]1CN(C(=O)CO)Cc2c1[nH]c1c(Cl)c(Cl)ccc21` [TDI-007576] gave a pIC50 of 6.49.
Compound `O=C(CO)N1CCc2[nH]c3c(Cl)c(Cl)cc(-c4cccc(O)c4)c3c2C1` [TDI-008085] showed a pIC50 of 7.51.
Compound `O=C(CO)N1CCc2[nH]c3c(Cl)c(Cl)cc(-c4cnc(C(F)(F)F)nc4)c3c2C1` [TDI-008451] gave a pIC50 of 5.01.
The compound `N#Cc1ccc2c3c([nH]c2c1C#N)CCN(C(=O)CO)C3` [TDI-006932] had a pIC50 below 4.60.
In turn, `COCC(=O)N1CCc2[nH]c3cc(Cl)ccc3c2C1` [TDI-005324] had a negative logarithm of the IC50 (pIC50) of 5.40.
As for `CC1CN(C(=O)CO)Cc2c1[nH]c1c(Cl)c(Cl)ccc21` (centres unmarked) [TDI-007553], the figure is 6.52; as for `O=C(CO)N1CCc2[nH]c3c(Cl)c(Cl)cc(-c4cnn(C(F)F)c4)c3c2C1` [TDI-008115], 7.35.
Turning to `COCCOCC(=O)N1CCc2[nH]c3c(Cl)c(Cl)ccc3c2C1` [TDI-005719], the pIC50 was 5.48.
`O=C1COc2cc(-c3cc(Cl)c(Cl)c4[nH]c5c(c34)CN(C(=O)CO)CC5)ccc2N1` [TDI-008462] gave a pIC50 of 5.92.
In the case of `O=C(CO)N1CCc2[nH]c3c(Cl)c(Cl)cc(-c4ccccc4F)c3c2C1` [TDI-008090], the pIC50 is 7.57.
The compound `Nc1ncccc1-c1cc(Cl)c(Cl)c2[nH]c3c(c12)CN(C(=O)CO)CC3` [TDI-008086] had a pIC50 of 5.69.
The compound `COc1cc(Cl)c(Cl)c2[nH]c3c(c12)CN(C(=O)CO)CC3` [TDI-006622] showed a pIC50 of 7.31.
`COc1cccc(-c2cc(Cl)c(Cl)c3[nH]c4c(c23)CN(C(=O)CO)CC4)n1` [TDI-008102] had a pIC50 of 7.40.
Take `O=C(CO)N1CCc2[nH]c3c(Br)c(Cl)ccc3c2C1` [TDI-006261]: the pIC50 is 6.85.
Compound `CN1CC=C(c2cc(Cl)c(Cl)c3[nH]c4c(c23)CN(C(=O)CO)CC4)CC1` [TDI-008449] gave a pIC50 of 6.38.
Then `O=C(CO)N1CCc2[nH]c3c(Cl)c(Cl)cc(-c4cccs4)c3c2C1` [TDI-008081], with 7.32; and `Cn1c2c(c3ccc(Cl)c(Cl)c31)CN(C(=O)CO)CC2` [TDI-006366], with 6.70.
With `COCC(=O)N1CCc2[nH]c3c(Cl)c(C#N)ccc3c2C1` [TDI-006171], the pIC50 was 5.11.
Regarding `COCC(=O)N1CCc2[nH]c3c(OC)c(Cl)ccc3c2C1` [TDI-005777], the pIC50 was 4.61.
Then `O=C(CO)N1CCc2[nH]c3c(Cl)c(Cl)cc(-c4ccc(S(=O)(=O)NCCCO)cc4)c3c2C1` [TDI-008464], with 5.41.
Then `O=C(CO)N1CCc2[nH]c3c(F)c(Cl)c(F)cc3c2C1` [TDI-007544], with 6.78; and `O=C(CO)N1CCc2[nH]c3c(Cl)c(Cl)cc(-c4ccc(F)cc4)c3c2C1` [TDI-008089], with 7.19; and `Cn1cc(-c2cc(Cl)c(Cl)c3[nH]c4c(c23)CN(C(=O)CO)CC4)ccc1=O` [TDI-008108], with 6.26.
For `CN(C)c1cccc(-c2cc(Cl)c(Cl)c3[nH]c4c(c23)CN(C(=O)CO)CC4)c1` [TDI-008120], the pIC50 was 6.36.
For `Cc1noc(C)c1-c1cc(Cl)c(Cl)c2[nH]c3c(c12)CN(C(=O)CO)CC3` [TDI-008096], the pIC50 was 5.23.
In the case of `Cc1nn(C)cc1-c1cc(Cl)c(Cl)c2[nH]c3c(c12)CN(C(=O)CO)CC3` [TDI-008092], the pIC50 is 5.74.
In turn, `Cn1nc(C(F)(F)F)cc1-c1cc(Cl)c(Cl)c2[nH]c3c(c12)CN(C(=O)CO)CC3` [TDI-008452] showed a pIC50 of 5.54.
As for `Cc1cc(-c2cc(Cl)c(Cl)c3[nH]c4c(c23)CN(C(=O)CO)CC4)ccn1` [TDI-008445], the figure is 7.46; as for `COc1ncc(-c2cc(Cl)c(Cl)c3[nH]c4c(c23)CN(C(=O)CO)CC4)cn1` [TDI-008112], 6.70; as for `O=C(CO)N1CCc2[nH]c3c(Cl)c(Cl)cc(-c4cncc(F)c4)c3c2C1` [TDI-008448], 7.59.
The compound `O=C(CO)N1CCc2[nH]c3c(Cl)c(Cl)cc(-c4ccoc4)c3c2C1` [TDI-008069] showed a pIC50 of 7.07.
Then `Cc1c(Cl)ccc2c3c([nH]c12)CCN(C(=O)CO)C3` [TDI-006360], with 6.49; and `O=C(CO)N1CCc2[nH]c3c(Cl)c(Cl)cc(-c4ccn[nH]4)c3c2C1` [TDI-007457], with 7.27; and `CC(=O)Nc1cc(Cl)c(F)c2[nH]c3c(c12)CN(C(=O)CO)CC3` [TDI-008522], with 6.44.
Regarding `CNC(=O)c1cc(Cl)c(F)c2[nH]c3c(c12)CN(C(=O)CO)CC3` [TDI-008520], the pIC50 is 5.98.
For the compound `COc1ncccc1-c1cc(Cl)c(Cl)c2[nH]c3c(c12)CN(C(=O)CO)CC3` [TDI-008110], the pIC50 is 5.53.
`O=C(CO)N1CCc2[nH]c3c(Cl)c(Cl)cc(C4=CCCCO4)c3c2C1` [TDI-008078] had a pIC50 of 7.50.
In turn, `Cc1ccc2c3c([nH]c2c1Cl)CCN(C(=O)CO)C3` [TDI-006358] had a pIC50 of 6.22.
Then `O=C(CO)N1CCc2[nH]c3c(Cl)c(Cl)cc(-c4ccn(C(F)F)n4)c3c2C1` [TDI-008474], with 7.74; and `COCC(=O)N1CCc2c(c3ccc(Br)c(F)c3n2C)C1` [TDI-008034], with 6.40.
As for `O=C(CO)N1CCc2[nH]c3c(F)c(Br)ccc3c2C1` [TDI-006529, 1-(7-Bromo-6-fluoro-1,3,4,5-tetrahydro-2H-pyrido[4,3-b]indol-2-yl)-2-hydroxyethan-1-one], the figure is 7.41.
Regarding `N#Cc1ncc(-c2cc(Cl)c(Cl)c3[nH]c4c(c23)CN(C(=O)CO)CC4)cn1` [TDI-008100], the pIC50 is 5.28.
Compound `CNc1ccc(-c2cc(Cl)c(Cl)c3[nH]c4c(c23)CN(C(=O)CO)CC4)cn1` [TDI-008101] gave a negative-log IC50 (pIC50) of 6.98.
Compound `CCOc1c(Cl)cc(-c2ccn(C)n2)c2c3c([nH]c12)CCN(C(=O)CO)C3` [TDI-008797] showed a pIC50 of 6.45.
For `Cc1cc(-c2cc(Cl)c(Cl)c3[nH]c4c(c23)CN(C(=O)CO)CC4)nn1C` [TDI-008093], the pIC50 was 6.48.
For `N#Cc1c(Cl)ccc2c3c([nH]c12)CCN(C(=O)CO)C3` [TDI-006931], the pIC50 is 6.40.
The compound `COc1ncc(-c2cc(Cl)c(Cl)c3[nH]c4c(c23)CN(C(=O)CO)CC4)s1` [TDI-008114] gave a pIC50 of 7.21.
As for `CNc1ncc(-c2cc(Cl)c(Cl)c3[nH]c4c(c23)CN(C(=O)CO)CC4)cn1` [TDI-008111], the figure is 6.57.
On to `Cc1nc(C)c(-c2cc(Cl)c(Cl)c3[nH]c4c(c23)CN(C(=O)CO)CC4)s1` [TDI-008113], for which the pIC50 is 6.02.
On to `Cn1c(=O)[nH]c2cc(-c3cc(Cl)c(Cl)c4[nH]c5c(c34)CN(C(=O)CO)CC5)ccc21` [TDI-008461], for which the pIC50 is 6.46.
Turning to `Cn1c2c(c3ccc(Br)c(F)c31)CN(C(=O)CO)CC2` [TDI-008061], the negative logarithm of the IC50 (pIC50) is 6.88.
As for `N#Cc1cccc(-c2cc(Cl)c(Cl)c3[nH]c4c(c23)CN(C(=O)CO)CC4)c1` [TDI-008098], the pIC50 was 7.07.
As for `O=C(CO)N1CCc2[nH]c3c(F)c(Cl)c(N4CCC4)cc3c2C1` [TDI-007560], the figure is 5.17.
In the case of `C[C@@H]1CCN(c2cc(Cl)c(F)c3[nH]c4c(c23)CN(C(=O)CO)CC4)C1` [TDI-008862], the pIC50 was 6.32.
In turn, `O=C(C1CCCO1)N1CCc2[nH]c3c(Cl)c(Cl)ccc3c2C1` (centres unmarked) [TDI-005745] had a pIC50 of 5.51.
In the case of `Cc1ncc(-c2cc(Cl)c(Cl)c3[nH]c4c(c23)CN(C(=O)CO)CC4)cn1` [TDI-008088], the pIC50 was 7.24.
Then `COCC(=O)N1CCc2[nH]c3c(Cl)ccc(Cl)c3c2C1` [TDI-005325], with 5.49; and `COc1cnccc1-c1cc(Cl)c(Cl)c2[nH]c3c(c12)CN(C(=O)CO)CC3` [TDI-008109], with 5.63; and `Cn1cccc1-c1cc(Cl)c(Cl)c2[nH]c3c(c12)CN(C(=O)CO)CC3` [TDI-008075], with 6.33.
`Nc1ccc(-c2cc(Cl)c(Cl)c3[nH]c4c(c23)CN(C(=O)CO)CC4)cc1` [TDI-008083]: the negative logarithm of the IC50 (pIC50) is 7.69.
Compound `O=C(CO)N1CCc2[nH]c3c(Cl)c(Br)ccc3c2C1` [TDI-006354] gave a pIC50 of 7.37.
As for `COCC(=O)N1CCc2[nH]c3c(C#N)c(Cl)ccc3c2C1` [TDI-006182], the figure is 6.24; as for `CCOCC(=O)N1CCc2[nH]c3c(Cl)c(Cl)ccc3c2C1` [TDI-005716], 5.82; as for `COc1cccnc1-c1cc(Cl)c(Cl)c2[nH]c3c(c12)CN(C(=O)CO)CC3` [TDI-008103], 7.36.
Then `COCC(=O)N1CCc2[nH]c3c(Cl)cc(Cl)cc3c2C1` [TDI-004576], with 5.51; and `O=C(CO)N1CCc2[nH]c3c(Cl)c(Cl)cc(CC4CCCC4)c3c2C1` [TDI-008439], with 6.18; and `Cc1nc2ccc(-c3cc(Cl)c(Cl)c4[nH]c5c(c34)CN(C(=O)CO)CC5)cc2n1C` [TDI-008460], with 6.08.
On to `C=Cc1ccc2c3c([nH]c2c1F)CCN(C(=O)CO)C3` [TDI-006923], for which the negative-log IC50 (pIC50) was 4.71.
In the case of `C#Cc1ccc2c3c([nH]c2c1F)CCN(C(=O)CO)C3` [TDI-007433], the pIC50 is 5.84.

A word on the pIC50: it is the negative decadic logarithm of the IC50, by convention in mol/L. Low readings indicate a large IC50, high ones a small IC50.
